{
  "source": "PubChem BioAssay AID1963974",
  "about": "(Molecular Pharmacology Branch, DTP, NCI, 2024);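 further: spheroids exposed to agents for seven days before reading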;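 on viability, T/C: percent of vehicle control luminescence where 100% = DMSO treated spheroids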",
  "tested_on": "648629-189-R-J1-PDC spheroids with HUVEC/MSC, viability",
  "experiment": "Anticancer human tumor 648629-189-R-J1-PDC patient-derived bladder carcinoma cell line growth inhibition [PI3K]",
  "details": "for IC50: curve of first compound; for viability, T/C: stronger effect = lower value",
  "method_in_brief": "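Viability of mixed-cell spheroids was determined after exposure to pairwise combinations, one partner being inavolisib, alpelisib, duvelisib or copanlisib. Highest tested concentration matched clinical Cmax where known and 10 microM where not, descending in half-log steps.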",
  "key": {"[1]": {"details": "second compound 0.00316 µM, first compound 0.0316 µM"}, "[2]": {"details": "second compound 0.00316 µM, first compound 0.1 µM"}, "[3]": {"details": "second compound 0.00316 µM, first compound 0.316 µM"}, "[4]": {"details": "second compound 0.00316 µM, first compound 1 µM"}, "[5]": {"details": "second compound 0.00316 µM, first compound 3.16 µM"}, "[6]": {"details": "second compound 0.00316 µM, first compound 10 µM"}, "[7]": {"details": "second compound 0.01 µM, first compound 0.0316 µM"}, "[8]": {"details": "second compound 0.01 µM, first compound 0.1 µM"}, "[9]": {"details": "second compound 0.01 µM, first compound 0.316 µM"}, "[10]": {"details": "second compound 0.01 µM, first compound 1 µM"}, "[11]": {"details": "second compound 0.01 µM, first compound 3.16 µM"}, "[12]": {"details": "second compound 0.01 µM, first compound 10 µM"}, "[13]": {"details": "second compound 0.0316 µM, first compound 0.0316 µM"}, "[14]": {"details": "second compound 0.0316 µM, first compound 0.1 µM"}, "[15]": {"details": "second compound 0.0316 µM, first compound 0.316 µM"}, "[16]": {"details": "second compound 0.0316 µM, first compound 1 µM"}, "[17]": {"details": "second compound 0.0316 µM, first compound 3.16 µM"}, "[18]": {"details": "second compound 0.0316 µM, first compound 10 µM"}, "[19]": {"details": "second compound 0.1 µM, first compound 0.0316 µM"}, "[20]": {"details": "second compound 0.1 µM, first compound 0.1 µM"}, "[21]": {"details": "second compound 0.1 µM, first compound 0.316 µM"}, "[22]": {"details": "second compound 0.1 µM, first compound 1 µM"}, "[23]": {"details": "second compound 0.1 µM, first compound 3.16 µM"}, "[24]": {"details": "second compound 0.1 µM, first compound 10 µM"}, "[25]": {"details": "second compound 0.316 µM, first compound 0.0316 µM"}, "[26]": {"details": "second compound 0.316 µM, first compound 0.1 µM"}, "[27]": {"details": "second compound 0.316 µM, first compound 0.316 µM"}, "[28]": {"details": "second compound 0.316 µM, first compound 1 µM"}, "[29]": {"details": "second compound 0.316 µM, first compound 3.16 µM"}, "[30]": {"details": "second compound 0.316 µM, first compound 10 µM"}, "[31]": {"details": "second compound 1 µM, first compound 0.0316 µM"}, "[32]": {"details": "second compound 1 µM, first compound 0.1 µM"}, "[33]": {"details": "second compound 1 µM, first compound 0.316 µM"}, "[34]": {"details": "second compound 1 µM, first compound 1 µM"}, "[35]": {"details": "second compound 1 µM, first compound 3.16 µM"}, "[36]": {"details": "second compound 1 µM, first compound 10 µM"}},
  "data": [
    {"smiles": "C[C@@H](NC(=O)c1ncnc(N)c1Cl)c1ncc(C(=O)Nc2cc(C(F)(F)F)c(Cl)cn2)s1", "note": "+ CC(Nc1ccc2c(c1)OCCn1cc(N3C(=O)OCC3C(F)F)nc1-2)C(N)=O", "values": [
      {"measurement": "IC50", "setting": "second compound 0.00316 µM", "result": "> 10", "unit": "µM"},
      {"measurement": "IC50", "setting": "second compound 0.01 µM", "result": "> 10", "unit": "µM"},
      {"measurement": "IC50", "setting": "second compound 0.0316 µM", "result": "> 10", "unit": "µM"},
      {"measurement": "IC50", "setting": "second compound 0.1 µM", "result": "> 10", "unit": "µM"},
      {"measurement": "IC50", "setting": "second compound 0.316 µM", "result": "> 10", "unit": "µM"},
      {"measurement": "IC50", "setting": "second compound 1 µM", "result": "> 10", "unit": "µM"},
      {"measurement": "viability, T/C", "setting": "[1]", "result": 106, "unit": "%"},
      {"measurement": "viability, T/C", "setting": "[2]", "result": 99.1, "unit": "%"},
      {"measurement": "viability, T/C", "setting": "[3]", "result": 112, "unit": "%"},
      {"measurement": "viability, T/C", "setting": "[4]", "result": 115, "unit": "%"},
      {"measurement": "viability, T/C", "setting": "[5]", "result": 108, "unit": "%"},
      {"measurement": "viability, T/C", "setting": "[6]", "result": 116, "unit": "%"},
      {"measurement": "viability, T/C", "setting": "[7]", "result": 111, "unit": "%"},
      {"measurement": "viability, T/C", "setting": "[8]", "result": 98.8, "unit": "%"},
      {"measurement": "viability, T/C", "setting": "[9]", "result": 115, "unit": "%"},
      {"measurement": "viability, T/C", "setting": "[10]", "result": 99.3, "unit": "%"},
      {"measurement": "viability, T/C", "setting": "[11]", "result": 112, "unit": "%"},
      {"measurement": "viability, T/C", "setting": "[12]", "result": 101, "unit": "%"},
      {"measurement": "viability, T/C", "setting": "[13]", "result": 109, "unit": "%"},
      {"measurement": "viability, T/C", "setting": "[14]", "result": 105, "unit": "%"},
      {"measurement": "viability, T/C", "setting": "[15]", "result": 97.4, "unit": "%"},
      {"measurement": "viability, T/C", "setting": "[16]", "result": 102, "unit": "%"},
      {"measurement": "viability, T/C", "setting": "[17]", "result": 106, "unit": "%"},
      {"measurement": "viability, T/C", "setting": "[18]", "result": 106, "unit": "%"},
      {"measurement": "viability, T/C", "setting": "[19]", "result": 103, "unit": "%"},
      {"measurement": "viability, T/C", "setting": "[20]", "result": 97.8, "unit": "%"},
      {"measurement": "viability, T/C", "setting": "[21]", "result": 105, "unit": "%"},
      {"measurement": "viability, T/C", "setting": "[22]", "result": 110, "unit": "%"},
      {"measurement": "viability, T/C", "setting": "[23]", "result": 98.3, "unit": "%"},
      {"measurement": "viability, T/C", "setting": "[24]", "result": 97.8, "unit": "%"},
      {"measurement": "viability, T/C", "setting": "[25]", "result": 94.8, "unit": "%"},
      {"measurement": "viability, T/C", "setting": "[26]", "result": 93.9, "unit": "%"},
      {"measurement": "viability, T/C", "setting": "[27]", "result": 83.7, "unit": "%"},
      {"measurement": "viability, T/C", "setting": "[28]", "result": 86.2, "unit": "%"},
      {"measurement": "viability, T/C", "setting": "[29]", "result": 96.2, "unit": "%"},
      {"measurement": "viability, T/C", "setting": "[30]", "result": 86.4, "unit": "%"},
      {"measurement": "viability, T/C", "setting": "[31]", "result": 76.2, "unit": "%"},
      {"measurement": "viability, T/C", "setting": "[32]", "result": 74.2, "unit": "%"},
      {"measurement": "viability, T/C", "setting": "[33]", "result": 69.3, "unit": "%"},
      {"measurement": "viability, T/C", "setting": "[34]", "result": 77.2, "unit": "%"},
      {"measurement": "viability, T/C", "setting": "[35]", "result": 78, "unit": "%"},
      {"measurement": "viability, T/C", "setting": "[36]", "result": 65.5, "unit": "%"}
    ]},
    {"smiles": "C#Cc1c(F)ccc2cc(O)cc(-c3ncc4c(N5CC6CCC(C5)N6)nc(OCC56CCCN5CC(F)C6)nc4c3F)c12", "note": "(centres undefined) + COc1c(OCCCN2CCOCC2)ccc2c3n(c(=NC(=O)c4cnc(N)nc4)nc12)CCN3", "values": [
      {"measurement": "IC50", "setting": "second compound 0.00316 µM", "result": "> 10", "unit": "µM"},
      {"measurement": "IC50", "setting": "second compound 0.01 µM", "result": "> 10", "unit": "µM"},
      {"measurement": "IC50", "setting": "second compound 0.0316 µM", "result": "> 10", "unit": "µM"},
      {"measurement": "IC50", "setting": "second compound 0.1 µM", "result": "> 10", "unit": "µM"},
      {"measurement": "IC50", "setting": "second compound 0.316 µM", "result": "< 0.0316", "unit": "µM"},
      {"measurement": "IC50", "setting": "second compound 1 µM", "result": "< 0.0316", "unit": "µM"},
      {"measurement": "viability, T/C", "setting": "[1]", "result": 107, "unit": "%"},
      {"measurement": "viability, T/C", "setting": "[2]", "result": 100, "unit": "%"},
      {"measurement": "viability, T/C", "setting": "[3]", "result": 96.5, "unit": "%"},
      {"measurement": "viability, T/C", "setting": "[4]", "result": 112, "unit": "%"},
      {"measurement": "viability, T/C", "setting": "[5]", "result": 105, "unit": "%"},
      {"measurement": "viability, T/C", "setting": "[6]", "result": 94.6, "unit": "%"},
      {"measurement": "viability, T/C", "setting": "[7]", "result": 112, "unit": "%"},
      {"measurement": "viability, T/C", "setting": "[8]", "result": 104, "unit": "%"},
      {"measurement": "viability, T/C", "setting": "[9]", "result": 103, "unit": "%"},
      {"measurement": "viability, T/C", "setting": "[10]", "result": 113, "unit": "%"},
      {"measurement": "viability, T/C", "setting": "[11]", "result": 102, "unit": "%"},
      {"measurement": "viability, T/C", "setting": "[12]", "result": 103, "unit": "%"},
      {"measurement": "viability, T/C", "setting": "[13]", "result": 89.4, "unit": "%"},
      {"measurement": "viability, T/C", "setting": "[14]", "result": 91.2, "unit": "%"},
      {"measurement": "viability, T/C", "setting": "[15]", "result": 85.9, "unit": "%"},
      {"measurement": "viability, T/C", "setting": "[16]", "result": 92.2, "unit": "%"},
      {"measurement": "viability, T/C", "setting": "[17]", "result": 79.7, "unit": "%"},
      {"measurement": "viability, T/C", "setting": "[18]", "result": 91.5, "unit": "%"},
      {"measurement": "viability, T/C", "setting": "[19]", "result": 67.2, "unit": "%"},
      {"measurement": "viability, T/C", "setting": "[20]", "result": 61.3, "unit": "%"},
      {"measurement": "viability, T/C", "setting": "[21]", "result": 58.2, "unit": "%"},
      {"measurement": "viability, T/C", "setting": "[22]", "result": 60.6, "unit": "%"},
      {"measurement": "viability, T/C", "setting": "[23]", "result": 65.1, "unit": "%"},
      {"measurement": "viability, T/C", "setting": "[24]", "result": 57.5, "unit": "%"},
      {"measurement": "viability, T/C", "setting": "[25]", "result": 24.3, "unit": "%"},
      {"measurement": "viability, T/C", "setting": "[26]", "result": 21.2, "unit": "%"},
      {"measurement": "viability, T/C", "setting": "[27]", "result": 18.3, "unit": "%"},
      {"measurement": "viability, T/C", "setting": "[28]", "result": 19.8, "unit": "%"},
      {"measurement": "viability, T/C", "setting": "[29]", "result": 17.9, "unit": "%"},
      {"measurement": "viability, T/C", "setting": "[30]", "result": 5.74, "unit": "%"},
      {"measurement": "viability, T/C", "setting": "[31]", "result": 3.22, "unit": "%"},
      {"measurement": "viability, T/C", "setting": "[32]", "result": 2.48, "unit": "%"},
      {"measurement": "viability, T/C", "setting": "[33]", "result": 2.94, "unit": "%"},
      {"measurement": "viability, T/C", "setting": "[34]", "result": 3.35, "unit": "%"},
      {"measurement": "viability, T/C", "setting": "[35]", "result": 3.07, "unit": "%"},
      {"measurement": "viability, T/C", "setting": "[36]", "result": 0.58, "unit": "%"}
    ]}
  ]
}
